The source of these data is patent US20080207653A1, “Compositions and Method for Increasing the Efficacy of Epidermal Growth Factor Receptor Tyrosine Kinase Inhibitors” (priority 2005, published 2008).

For one data set, the system named is cyclin D1 protein. The conditions noted are these: in vitro and in vivo, aerodigestive tract cancers; cited from earlier work.
In a further data set the test system is human tumor xenografts. The conditions noted are these: animals; cited from earlier work.
Data set [1] concerns chemotherapy refractory non-small cell lung cancer. To be noted: cited from earlier work.
For data set [2], the system named is human lung cancer A549 cells. Briefly: Erlotinib accumulation and stereoisomerization in A549 cells and treatment media (LC-MS-MS). Type of data set: cell-based. To be noted: for conversion of parent drug to the 1.78 minute stereoisomer in the presence of cells: media with A549 cells. The procedure: Analysis of erlotinib metabolism was carried out using erlotinib-resistance cancer cells (human lung cancer A549 cells). Cells were exposed to achievable clinical doses (3 μM) of erlotinib and then lysed at various times following exposure to the drug. Relative erlotinib concentrations were determined in the A549 cell treatment media and compared to levels of erlotinib containing media incubated in the absence of cells as a control. Erlotinib concentrations were assessed using a liquid chromatography dual mass spectrometric method. […] Based on an analysis of chemical structure, only one stereoisomer of the parent drug could account for the 1.78 minute variant form. The stereoisomer migrating at 1.78 minutes represents the L or S configuration of this molecule, wherein the configuration is determined by performing liquid chromatographic separation of the two stereoisomers followed by nuclear magnetic resonance (NMR) analysis of each.
Culture of A549 human lung cancer cells were carried out in Ham's F12 media with L-glutamine containing 10% fetal bovine serum, amphoterecin B, penicillin, and streptomycin. Cells were plated at a density of 300,000 cells per well in a 6 well plate. Cells were allowed to adhere overnight, media was aspirated and 3 mL of treatment media containing 3 μM erlotinib was added to each well. At the same time, 3 mL of the same media was added to wells that contained no cells as a control. One hundred μL of the media was removed from the wells immediately prior to harvesting the cells at various time points. The remaining media was removed and 250 μL of distilled deionized water was added to each well. Cells were also disrupted with a rubber policeman. Each media or cell extract sample was brought to a 1 mL volume with methanol and water (final concentration 50% methanol). Fifty μL of 0.4 M ZnSO4 was added to each sample. Samples were vortexed for 10 seconds and centrifuged at 13,000 RCF for 5 minutes. The supernatants from each were subjected to LC-MS-MS chromatographic analysis using a Waters® Model 2795 system equipped with a Waters® X-Terra® MS column. The mobile phase was composed of 70% methanol containing 0.1% formic acid at a flow rate of 0.15 mL per minute. Dual mass spectroscopy was performed with 394 for the initial mass and 278 for the daughter ion (after collision using argon gas). Dual mass spectroscopic analysis of midazolam was used as an internal standard and was performed at the same time using 326 as the mass for the parent and 291 for the daughter ion. Data was collected and analyzed using Masslynx™ version 3.4 software.

`C#Cc1cccc(Nc2ncnc3cc(OCCOC)c(OCCOC)cc23)c1` [erlotinib, N-(3-ethynylphenyl)-6,7-bis(2-methoxyethoxy)quinazolin-4-amine]: the “effect on expression of cyclin D1 protein” value in the data set with cyclin D1 protein is “represses expression of cyclin D1 protein”. Besides, the “dose inhibiting proliferation of human tumor xenografts” value with human tumor xenografts is reported as about 10 mg/kg. The “toxicity at clinical dose” value in data set [1] (doses in the range of 150 mg, patients) is reported as “little reported toxicity”. Further, the “dose showing the ability to affect tumor growth” value in data set [1] (patients with chemotherapy refractory non-small cell lung cancer) is listed as about 150 mg. Besides, in data set [2] (A549 cells, 3 μM erlotinib, 8 hours), the “intracellular concentration of erlotinib by 8 hours” value was “nearly undetectable levels”. In addition, the “time at which intracellular concentrations of erlotinib peaked” value in data set [2] (A549 cells, 3 μM erlotinib, cell lysates) worked out at 4 h. For the same compound, the “total erlotinib concentrations in the treatment media over the time course” value in data set [2] (A549 treatment media, 3 μM erlotinib) is “did not vary significantly”. Moreover, the “stereoisomer present in the media in the absence of cells” value in data set [2] (control media without cells, throughout the time course) is on record as “parent drug constituted the most abundant stereoisomer”. Further, the figures for the “conversion of parent drug to the 1.78 minute stereoisomer in the presence of cells” value in data set [2] (4 hours) and in data set [2] (8 hours) were “some conversion” and “complete conversion”, respectively.
